Measurements taken from PubChem BioAssay (NCI).
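96-well plates; 48 h exposure; 5 concentrations. Endpoints by linear interpolation between flanking doses. Not reached: highest tested concentration assigned. GI50: concentration for 50% inhibition of growth. At the TGI there is no net growth.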

How the values were obtained:
Assay in all cases: DTP human tumour cell line panel, 48 h
[1] = tested on: HCT-116 colon
[2] = tested on: TK-10 renal
[3] = tested on: NCI-H522 lung
[4] = tested on: SK-MEL-28 melanoma
[5] = tested on: IGROV1 ovarian
[6] = tested on: HS 578T breast
[7] = tested on: SF-268 CNS
[8] = tested on: CAKI-1 renal
[9] = tested on: U251 CNS
[10] = tested on: A498 renal

SMILES | GI50 [1] [µM] | TGI [1] [µM] | GI50 [2] [µM] | TGI [2] [µM] | GI50 [3] [µM] | TGI [3] [µM] | GI50 [4] [µM] | TGI [4] [µM] | GI50 [5] [µM] | TGI [5] [µM] | GI50 [6] [µM] | TGI [6] [µM] | GI50 [7] [µM] | TGI [7] [µM] | GI50 [8] [µM] | TGI [8] [µM] | GI50 [9] [µM] | TGI [9] [µM] | GI50 [10] [µM] | TGI [10] [µM]
O=C(c1cccs1)c1c(C(F)(F)F)n([O-])c2cc(C(F)(F)F)ccc2[n+]1=O | 0.0575 | 0.176 | 0.678 | 1.85 | 0.294 | 0.738 | 0.694 | 2.09 | 0.29 | 0.848 | 0.189 | 0.546 | 0.163 | 0.334 | 0.22 | 0.628 | 0.153 | 0.288 | 0.96 | 2.6
O=C1C(Br)=C(c2ccccc2)C(c2ccccc2)=C1c1ccccc1 |  | 3.6 |  | 7.12 |  | 1.77 |  | 6.75 |  | 10.6 |  | 40.5 |  | 7.52 |  | 6.06 |  | 9.83 |  | 29.9
COc1cc(/C=C2\C[C@H]3[C@@H]4CC=C5C[C@@H](OC(C)=O)CC[C@]5(C)[C@H]4CC[C@]3(C)[C@H]2OC(C)=O)ccc1OCCCn1ccnc1 | 7.78 | 17.2 | 3.73 | 13.3 | 12.8 | > 36.3 | 15.9 | > 50 | 16.8 | > 50 | 5.85 | 16.5 | 9.63 | 21.6 | 7.05 | 15.8 | 6.28 | 12.7 | 7.19 | 15
C/C(=C\c1ccn(-c2ccc(N)cc2C(F)(F)F)n1)[C@@H]1C[C@@H]2O[C@]2(C)CCC[C@H](C)[C@H](O)[C@@H](C)C(=O)C(C)(C)[C@@H](O)CC(=O)O1 | 0.201 | > 11.1 | 0.612 | > 11.1 | 0.178 | 0.428 | 1.06 | > 11.1 | 0.778 | > 11.1 | 0.399 | 4.3 | 0.481 | > 11.1 | 7.81 | > 11.1 | 0.386 | > 11.1 | 0.303 | 2.27
O=c1[nH]cnc2c1nnn2[C@@H]1O[C@H](CO)[C@@H](O)[C@H]1O | 3.93 | > 100 | 9.1 | > 100 | 4.55 | 63.4 | 31.5 | > 100 | 2.57 | 58.1 | 17.6 | > 100 | 28.9 | > 100 | 1.04 | > 100 | 25.8 | > 100 | 2.51 | 57.4
c1cncc(-c2cc(-c3cc(-c4cccnc4)n[nH]3)[nH]n2)c1 |  | > 100 |  | > 100 |  | > 100 |  | > 100 |  | > 100 |  | > 100 |  | > 100 |  | > 100 |  | > 100 |  | > 100
CCN(CC)CCCC(C)N/C(c1cccc(OC)c1)=c1\c(=O)[nH]n(-c2c3ccccc3nc3ccccc23)c(=O)\c1=C(/NC(C)CCCN(CC)CC)c1cccc(OC)c1 (centres undefined) | 0.491 | 3.25 | 2.58 | 7.89 | 1.55 | 3.21 | 1.69 | 3.17 | 1.52 | 4.99 | 2.3 | 7.28 | 1.4 | 4.87 | 1.66 | 4.17 |  |  | 1.52 | 2.93
CCOC(=O)c1ccc(C(O)CC(=O)OC(C)(C)C)[nH]1 (centres undefined) | 23.2 | 68.4 | 58.4 | > 100 | 9.5 | 25.9 | 35.7 | > 100 | 12.4 | 30.4 | 48.3 | > 100 | 28.7 | > 100 | 21.6 | 87.2 | 39.5 | > 100 | 23.7 | > 100
COc1cc(-c2ccc(-[n+]3nc(-c4ccc([N+](=O)[O-])cc4)nn3-c3ccc([N+](=O)[O-])cc3)c(OC)c2)ccc1-[n+]1nc(-c2ccc([N+](=O)[O-])cc2)nn1-c1ccc([N+](=O)[O-])cc1 | 3.38 | > 31.6 | 4.61 | 17.5 | 0.672 | 7.71 | 18 | 64.4 | 0.707 | 51.7 | 1.93 | 5.07 | 1.66 | 5.38 | 15.1 | 48.5 | 10.8 | 38.7 | 2.99 | 13.9
COc1cc(N)ccc1Nc1c2ccccc2nc2ccccc12 | 2.51 | 7.63 | 14.6 | 30.2 | 17.9 | 51.3 | 16.3 | 34.9 | 10.2 | > 59.4 | 14.3 | 44.3 | 14.2 | 35.3 | 7.75 | 25.1 | 4.39 | 11.5 | 6.28 | 22.4
O=C1CN2CCC1C/C2=C\c1ccnc2c(Cl)cccc12 (centres undefined) | 45 | > 100 | > 100 | > 100 | 53.5 | > 100 | > 100 | > 100 | 34 | > 100 | > 100 | > 100 | > 100 | > 100 | 21 | > 100 | 64.4 | > 100 | 69.8 | > 100
COc1cc2c(cc1OCCCCCN1CCN(c3cc(=O)oc4c(C)c(OC)ccc34)CC1)N=C[C@@H]1CCCN1C2=O |  |  | < 0.0129 | 13.3 | < 0.01 | < 0.0352 | < 0.0235 | 0.163 | < 0.01 | 0.0251 | < 0.0198 | 0.791 | < 0.01 | 0.318 | 0.083 | 0.537 | < 0.01 | 0.585 | < 0.0127 | 0.0289
COc1ccc2c(c1)/C(=C/c1c(-c3ccc(C)cc3)nc3sc(C)cn13)C(=O)N2 | 4.71 | 18.7 | 7.93 | > 100 | 13.5 | > 100 | 23.4 | > 100 | 32.9 | > 100 | 19.8 | > 100 | 11.1 | > 100 | 35.3 | > 100 |  |  | 20.2 | 60.6
